# Assays:
# [1] = biological target: T1, CYP3A4 (Homo sapiens, UniProt P08684); assay: CYP450 Inhibition Assay 2 (pooled human liver microsomes, 5 concentrations); assay type: in vitro ADME; conditions: Table 3, HLM 0.05 mg protein/mL, 10 min reaction; for IC50 at 10 min: human, pooled human liver microsomes
# T1 construct: from tissue; host or cells: pooled human liver microsomes
# Procedure: In an alternative experimental design, test compounds were evaluated at 5 concentrations in a 96 well assay plate. Initial combination with pooled human liver microsomes (0.05 mg protein/mL) was followed by a 5 minute incubation. […] The assay plate was incubated for an additional 30 minutes before the reaction was initiated with the addition of NADPH. After 10 minutes of reaction time, the reaction was quenched and samples were analyzed in a similar manner as described above.
# [2] = system: Q7 cells (ST HDH Q7/7; immortalized mouse striatal cells); assay: Q7 Cystine Deprivation cell survival (rescue) assay; assay type: cell-based; conditions: Q7 cells, cystine-free medium, 18 h, Cell Titer Glo, 50% relative viability vs Vitamin K2 (1 micromolar), read-out: Q7 Cystine Deprivation Survival EC50
# Summary of the method: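 Cells were seeded at 3,000/well and allowed to attach for 5 h at 33 °C. Wells were then washed twice with PBS and switched to cystine-free DMEM containing FBS, 4 mM L-glutamine, 1 mM pyruvate and 30 mg/L methionine to induce ferroptotic death. Compounds were scored for survival rescue.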
# [3] = system: Q7 cells (ST HDH Q7/7; immortalized mouse striatal cells); assay: Q7 RSL3 challenge cell survival (rescue) assay; assay type: cell-based; conditions: Q7 cells, RSL3 2 micromolar, 18 h, Cell Titer Glo, read-out: Q7 RSL3 Survival EC50
# Text: In neuronal cells excess extracellular glutamate inhibits the cystine/glutamate antiporter leading to intracellular cysteine depletion, GSH depletion, reactive oxygen species (ROS) production and cell death, a phenomenon termed oxidative glutamate toxicity, oxytosis, or ferroptosis. […] Q7 cells (ST HDH Q7/7; immortalized mouse striatal cells) challenged with cystine-free media or the selective, irreversible GPX4 inhibitor, methyl (1S,3R)-2-(2-chloroacetyl)-1-(4-(methoxycarbonyl)phenyl)-2,3,4,9-tetrahydro-1H-pyrido[3,4-b]indole-3-carboxylate (hereafter referred to as RSL3), recapitulate this phenotype, as do normal human fibroblasts (NHF) challenged with RSL3. An initial screen was performed to identify compounds effective in rescuing Q7 and/or NHF cells from death resulting from cystine deprivation or RSL3 challenge. This method is further described in Yonezawa et al., J. Neurochem 67, 566-573 (1996), Li et al., J Neurosci., 23, 5816-5826 (2003), Yang and Stockwell, Chem Biol., 15: 234-45 (2008), and Yang et al., Cell 156, 317-331 (2014). See also Hinman A, Holst C R, Latham J C, et al. Vitamin E hydroquinone is an endogenous regulator of ferroptosis via redox control of 15-lipoxygenase. PLoS One. 2018; 13(8):e0201369. Published 2018 Aug. 15. doi:10.1371/journal.pone.0201369; and Kahn-Kirby A H, Amagata A, Maeder C I, et al. Targeting ferroptosis: A novel therapeutic strategy for the treatment of mitochondrial disease-related epilepsy. PLoS One. 2019; 14(3):e0214250. Published 2019 Mar. 28. doi:10.1371/journal.pone.0214250.
# DMEM (Catalog no. 11995-040), DMEM without Cystine (Catalog no. 21013-024), DMEM without Glucose (Catalog A1443001), PBS (Phosphate buffered saline), Penicillin-streptomycin mix, L-Glutamine, Glucose, Phenol Red, and Pyruvate were purchased from ThermoFisher Scientific (Gibco). Fetal Bovine Serum was obtained from Mediatech, Inc., or Sigma Aldrich. Mouse striatum derived ST HDH Q7/7 (Q7) and normal human skin fibroblast (NHF, product number GM21811) cells were obtained from the Coriell Institute. Methionine and Vitamin K2 were purchased from Sigma Aldrich. RSL3 was synthesized as previously described (see e.g. US Patent Publication US2010/0081654). Cell Titer Glo 2.0 was purchased from Promega. Q7 cell culture medium (Q7 growth medium) was made by combining 50 mL Fetal Bovine Serum, 100 U/mL penicillin, and 100 microgram/mL streptomycin; DMEM was added to make the volume up to 500 mL. Assay medium for the Cystine Deprivation assay was prepared by combining 50 mL Fetal Bovine Serum, 100 U/mL penicillin, 100 microgram/mL streptomycin, 4 mM L-Glutamine, 1 mM Pyruvate and 30 mg/L Methionine; DMEM without Cystine was added to make the volume up to 500 mL. NHF cell culture medium (NHF growth medium) was made by combining 50 mL Fetal Bovine Serum, 100 U/mL penicillin, 100 microgram/mL streptomycin, 2.8 mL 20% Glucose solution (final concentration 6 mM), L-glutamine (final concentration 2 mM), phenol red (final concentration 15 mg/L); DMEM without Glucose was added to make the volume up to 500 mL. Assay medium for the RSL3 challenge assay was identical to Growth medium. While not in use during the course of the experiments, these solutions were stored at 4° C. The cells were grown in 150-cm^2 tissue culture-treated flasks. Every third or fourth day, the cells were sub-cultured by trypsinization and re-seeded at a cell density of 600,000 (Q7) or 300,000 (NHF) cells per flask.
# Q7 or NHF cells were cultured routinely as described herein. For 384-well cell survival assays, cells were seeded in clear bottom, black wall 384-well tissue culture-treated polystyrene plates by re-suspending a cell suspension at a density of 50,000 cells/mL in growth medium, then dispensing 60 microliters of cell suspension per well using either an electronic multichannel pipette or a Multidrop™ Combi Reagent Dispenser (ThermoFisher Scientific), corresponding to 3,000 cells/well. […]
# [4] = system: normal human fibroblasts (NHF, GM21811); assay: NHF GM21811 RSL3 challenge cell survival (rescue) assay; assay type: cell-based; conditions: Fibroblast, NHF cells, RSL3 2 micromolar, 48 h, Cell Titer Glo, read-out: NHF GM21811 RSL3 Survival EC50
# Summary of the method: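 Q7 (33° C.) or NHF (37° C.) cells, 3,000/well, attached 5 h, then test compounds at varying final concentrations followed within 15 min by RSL3 (2 micromolar final); 0.3% DMSO. Assay medium identical to growth medium.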
# T1 sequence (P08684 whole entry): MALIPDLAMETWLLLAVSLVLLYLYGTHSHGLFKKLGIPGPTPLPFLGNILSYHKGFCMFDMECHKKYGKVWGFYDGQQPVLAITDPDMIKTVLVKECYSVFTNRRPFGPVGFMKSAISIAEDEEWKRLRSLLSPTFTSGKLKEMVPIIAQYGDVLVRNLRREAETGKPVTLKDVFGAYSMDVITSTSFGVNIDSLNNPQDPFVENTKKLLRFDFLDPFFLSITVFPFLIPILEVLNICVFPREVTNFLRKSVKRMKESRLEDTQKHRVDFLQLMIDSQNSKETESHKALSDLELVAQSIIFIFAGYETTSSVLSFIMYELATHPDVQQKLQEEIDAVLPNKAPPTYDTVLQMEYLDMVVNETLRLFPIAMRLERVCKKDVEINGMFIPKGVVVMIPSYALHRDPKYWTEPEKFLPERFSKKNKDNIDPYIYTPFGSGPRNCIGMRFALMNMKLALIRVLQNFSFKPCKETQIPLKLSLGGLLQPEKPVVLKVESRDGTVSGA
IC50 [1],IC50 at 10 min [1],SMILES,EC50 [2],EC50 [3],EC50 [4]
37.2 µM,,"CC1=C(Cc2cc(C(F)(F)F)ccn2)C(=O)c2ccccc2C1=O [Example 9, 2-methyl-3-((4-(trifluoromethyl)pyridin-2-yl)methyl)naphthalene-1,4-dione]",< 50 nM,,
20.1 µM,,"CC1=C(C(C)c2ccccn2)C(=O)c2ccccc2C1=O (centres unmarked) [Example 24, 2-methyl-3-(1-(pyridin-2-yl)ethyl)naphthalene-1,4-dione]",< 50 nM,,
11.9 µM,,"O=C1C(Cc2ccc(C(F)(F)F)cn2)=C(C2CC2)C(=O)c2ccccc21 [Example 27, 2-cyclopropyl-3-((5-(trifluoromethyl)pyridin-2-yl)methyl)naphthalene-1,4-dione]",< 50 nM,,
,≥ 50 µM,"CC(C)(C)CC1=C(Cc2ccc(C(F)(F)F)cn2)C(=O)c2ccccc2C1=O [Example 28, 2-neopentyl-3-((5-(trifluoromethyl)pyridin-2-yl)methyl)naphthalene-1,4-dione]",50 to 250 nM,,
21.4 µM,,"CC(C)CC1=C(Cc2ccc(C(F)(F)F)cn2)C(=O)c2ccccc2C1=O [Example 29, 2-isobutyl-3-((5-(trifluoromethyl)pyridin-2-yl)methyl)naphthalene-1,4-dione]",< 50 nM,,
17.4 µM,,"CC1(C2=C(Cc3ccc(C(F)(F)F)cn3)C(=O)c3ccccc3C2=O)CC1 [Example 31, 2-(1-methylcyclopropyl)-3-((5-(trifluoromethyl)pyridin-2-yl)methyl)naphthalene-1,4-dione]",< 50 nM,,
,≥ 50 µM,"CC1=C(Cc2ncccc2C(F)(F)F)C(=O)c2ccccc2C1=O [Example 39, 2-methyl-3-((3-(trifluoromethyl)pyridin-2-yl)methyl)naphthalene-1,4-dione]",< 50 nM,,
,,"CC1=C(Cc2ccc(C(F)(F)F)cn2)C(=O)c2c(F)cccc2C1=O [Example 51, 5-fluoro-2-methyl-3-((5-(trifluoromethyl)pyridin-2-yl)methyl)naphthalene-1,4-dione]",< 50 nM,< 50 nM,< 50 nM
,,"CC1=C(Cc2ccc(C(F)(F)F)cn2)C(=O)c2c(F)ccc(F)c2C1=O [Example 52, 5,8-difluoro-2-methyl-3-((5-(trifluoromethyl)pyridin-2-yl)methyl)naphthalene-1,4-dione]",< 50 nM,< 50 nM,< 50 nM
,≥ 50 µM,"CC1=C(Cc2ccc(C(=O)O)cn2)C(=O)c2ccccc2C1=O [Example 99, 6-((3-methyl-1,4-dioxo-1,4-dihydronaphthalen-2-yl)methyl)nicotinic acid]",> 1000 nM,,
,≥ 50 µM,"CC1=C(Cc2ccc(C(=O)NC3CCCC3)cn2)C(=O)c2ccccc2C1=O [Example 100, N-cyclopentyl-6-((3-methyl-1,4-dioxo-1,4-dihydronaphthalen-2-yl)methyl)nicotinamide]",50 to 250 nM,,
23 µM,,"CC1=C(Cc2ccc(C(N)=O)cn2)C(=O)c2ccccc2C1=O [Example 101, 6-((3-methyl-1,4-dioxo-1,4-dihydronaphthalen-2-yl)methyl)nicotinamide]",< 50 nM,,
8.8 µM,,"CCN(C(=O)c1ccc(CC2=C(C)C(=O)c3ccccc3C2=O)nc1)C(C)C [Example 102, N-ethyl-N-isopropyl-6-((3-methyl-1,4-dioxo-1,4-dihydronaphthalen-2-yl)methyl)nicotinamide]",< 50 nM,,
41.5 µM,,"CC1=C(Cc2ccc(C(=O)NC3(C)CCC3)cn2)C(=O)c2ccccc2C1=O [Example 103, 6-((3-methyl-1,4-dioxo-1,4-dihydronaphthalen-2-yl)methyl)-N-(1-methylcyclobutyl)nicotinamide]",250 to 1000 nM,,
20.7 µM,,"CC1=C(Cc2ccc(C(=O)N(C)C(C)C)cn2)C(=O)c2ccccc2C1=O [Example 104, N-isopropyl-N-methyl-6-((3-methyl-1,4-dioxo-1,4-dihydronaphthalen-2-yl)methyl)nicotinamide]",< 50 nM,,
,≥ 50 µM,"CC1=C(Cc2ccc(C(=O)NCC3CC3)cn2)C(=O)c2ccccc2C1=O [Example 105, N-(cyclopropylmethyl)-6-((3-methyl-1,4-dioxo-1,4-dihydronaphthalen-2-yl)methyl)nicotinamide]",50 to 250 nM,,
15.6 µM,,"CCCC1=C(Cc2ccc(C(F)(F)F)cn2)C(=O)c2ccccc2C1=O [Example 109, 2-propyl-3-((5-(trifluoromethyl)pyridin-2-yl)methyl)naphthalene-1,4-dione]",< 50 nM,,
,,"CCCC1=C(Cc2cc(C)c(F)cn2)C(=O)c2ccccc2C1=O [Example 113, 2-((5-fluoro-4-methylpyridin-2-yl)methyl)-3-propylnaphthalene-1,4-dione]",< 50 nM,< 50 nM,< 50 nM
,,"CCCC1=C(Cc2ccc(F)cn2)C(=O)c2ccccc2C1=O [Example 116, 2-((5-fluoropyridin-2-yl)methyl)-3-propylnaphthalene-1,4-dione]",< 50 nM,< 50 nM,< 50 nM
,,"CCCC1=C(Cc2ccc(F)c(C)n2)C(=O)c2ccccc2C1=O [Example 118, 2-((5-fluoro-6-methylpyridin-2-yl)methyl)-3-propylnaphthalene-1,4-dione]",< 50 nM,< 50 nM,< 50 nM
,,"Cc1cc(CC2=C(C3CC3)C(=O)c3ccccc3C2=O)ncc1F [Example 120, 2-cyclopropyl-3-((5-fluoro-4-methylpyridin-2-yl)methyl)naphthalene-1,4-dione]",< 50 nM,< 50 nM,< 50 nM
,,"Cc1ccc(CC2=C(CCC3COC3)C(=O)c3ccccc3C2=O)nc1 [Example 122, 2-((5-methylpyridin-2-yl)methyl)-3-(2-(oxetan-3-yl)ethyl)naphthalene-1,4-dione]",< 50 nM,< 50 nM,50 to 250 nM
,≥ 50 µM,"CC1=C(Cc2ccc(C#N)cn2)C(=O)c2ccccc2C1=O [Example 123, 6-((3-methyl-1,4-dioxo-1,4-dihydronaphthalen-2-yl)methyl)nicotinonitrile]",< 50 nM,,
